According to patent US10131652B2, “Pyrimidinyloxy benzene derivatives as herbicides” (E. I. DU PONT DE NEMOURS AND COMPANY, priority 2014, dated 2018):
Where two headings read alike, the source gives them in different places.

Key:
Format in all cases: in vivo
[1] = tested on: nightshade (eastern black nightshade, Solanum ptycanthum); assay: Test F pre-/postemergence plant response; settings: Solanum, pre-emergence, scale 0 to 100, read-out: Plant response rating, Nightshade
Method in brief: (§1)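 Visual control ratings were scored 0 (no effect) to 100 (complete control) versus untreated plants after 14–21 greenhouse days. Compounds, formulated in a surfactant-containing non-phytotoxic solvent, were applied both to silt loam at planting (preemergence) and to 1- to 4-leaf plants 2–18 cm tall (postemergence).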

[2] = tested on: palmer pigweed (Amaranthus palmeri); assay: Test F pre-/postemergence plant response; settings: Amaranthus palmeri, post-emergence, scale 0 to 100, read-out: Plant response rating, Pigweed, Palmer
Method in brief: as §1

[3] = tested on: sandbur (southern sandbur, Cenchrus echinatus); assay: Test F pre-/postemergence plant response; settings: Cenchrus echinatus, scale 0 to 100, read-out: Plant response rating, Sandbur
Method in brief: as §1

[4] = tested on: goosegrass (Eleusine indica); assay: Test F pre-/postemergence plant response; settings: Eleusine indica, pre-emergence, scale 0 to 100, read-out: Plant response rating, Goosegrass
Method in brief: as §1

corn (Zea mays) = assay: Test F pre-/postemergence plant response; settings: Zea mays, scale 0 to 100
Method in brief: as §1

[5] = tested on: velvetleaf (Abutilon theophrasti); assay: Test F pre-/postemergence plant response; settings: Abutilon theophrasti, pre-emergence, scale 0 to 100, read-out: Plant response rating, Velvetleaf
Method in brief: as §1

[6] = tested on: hairy beggarticks (Bidens pilosa); assay: Test F pre-/postemergence plant response; settings: Bidens pilosa, scale 0 to 100, read-out: Plant response rating, Beggarticks
Method in brief: as §1

[7] = tested on: arrowleaf sida (Sida rhombifolia); assay: Test F pre-/postemergence plant response; settings: Sida rhombifolia, scale 0 to 100, read-out: Plant response rating, Arrowleaf Sida
Method in brief: as §1

[8] = tested on: fall panicum (Panicum dichotomiflorum); assay: Test F pre-/postemergence plant response; settings: Panicum dichotomiflorum, scale 0 to 100, read-out: Plant response rating, Panicum, Fall
Method in brief: as §1

[9] = tested on: Brazilian crabgrass (Digitaria horizontalis); assay: Test F pre-/postemergence plant response; settings: Digitaria horizontalis, scale 0 to 100, read-out: Plant response rating, Crabgrass, Brazil
Method in brief: as §1

[10] = tested on: morningglory (Ipomoea spp.); assay: Test B pre-/postemergence plant response; settings: Ipomoea, 240 h, 1000 g ai/ha, 0 to 100 scale (0 no effect, 100 complete control), read-out: Plant response rating, Morningglory
Method in brief: (§2)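 Steps: plant seeds in loam soil–sand mix; spray soil preemergence, and in parallel spray 2–10 cm one- to two-leaf plants postemergence; hold ~10 days in greenhouse; visually rate injury against untreated controls (0 = no effect, 100 = complete control).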

[11] = tested on: velvetleaf (Abutilon theophrasti); assay: Test B pre-/postemergence plant response; settings: Abutilon theophrasti, 240 h, 1000 g ai/ha, 0 to 100 scale (0 no effect, 100 complete control), read-out: Plant response rating, Velvetleaf
Method in brief: as §2

[12] = post-emergence, 8 g ai/ha Postemergence
[13] = post-emergence, 16 g ai/ha Postemergence
[14] = post-emergence, 31 g ai/ha Postemergence
[15] = post-emergence, 62 g ai/ha Postemergence
[16] = post-emergence, 125 g ai/ha Postemergence
[17] = pre-emergence, 8 g ai/ha Preemergence
[18] = pre-emergence, 16 g ai/ha Preemergence
[19] = pre-emergence, 31 g ai/ha Preemergence
[20] = pre-emergence, 125 g ai/ha Preemergence
[21] = pre-emergence, 62 g ai/ha Preemergence

SMILES: FC(F)c1cc(-c2ccccc2Oc2ncc(Cl)cn2)no1 [Compound 35, 5-chloro-2-[2-[5-(difluoromethyl)-3-isoxazolyl]phenoxy]pyrimidine]
- pest or weed control at 8 g/ha ([1]; 8 g ai/ha Preemergence): 75%
- pest or weed control at 16 g/ha ([1]; 16 g ai/ha Preemergence): 95%
- pest or weed control at 31 g/ha ([1]; 31 g ai/ha Preemergence): 98%
- pest or weed control at 125 g/ha ([1]; 125 g ai/ha Preemergence): 100%
- pest or weed control at 62 g/ha ([1]; Preemergence): 98%
- pest or weed control at 8 g/ha ([2]; 8 g ai/ha Postemergence): 60%
- pest or weed control at 16 g/ha ([2]; 16 g ai/ha Postemergence): 75%
- pest or weed control at 31 g/ha ([2]; 31 g ai/ha Postemergence): 95%
- pest or weed control at 62 g/ha ([2]; 62 g ai/ha Postemergence): 100%
- pest or weed control at 125 g/ha ([2]; 125 g ai/ha Postemergence): 100%
- pest or weed control at 8 g/ha [3, 12]: 0%
- pest or weed control at 16 g/ha [3, 13]: 0%
- pest or weed control at 31 g/ha [3, 14]: 0%
- pest or weed control at 62 g/ha [3, 15]: 0%
- pest or weed control at 125 g/ha [3, 16]: 0%
- pest or weed control at 8 g/ha [3, 17]: 0%
- pest or weed control at 16 g/ha [3, 18]: 10%
- pest or weed control at 31 g/ha [3, 19]: 10%
- pest or weed control at 125 g/ha [3, 20]: 65%
- pest or weed control at 62 g/ha ([3]; pre-emergence, Preemergence): 40%
- pest or weed control at 8 g/ha ([4]; 8 g ai/ha Preemergence): 0%
- pest or weed control at 16 g/ha ([4]; 16 g ai/ha Preemergence): 0%
- pest or weed control at 31 g/ha ([4]; 31 g ai/ha Preemergence): 60%
- pest or weed control at 125 g/ha ([4]; 125 g ai/ha Preemergence): 95%
- pest or weed control at 62 g/ha ([4]; Preemergence): 75%
- Corn plant response rating (crop injury, 0 = no effect, 100 = complete kill) at 8 g/ha (corn (Zea mays); [12]): 10%
- Corn plant response rating (crop injury, 0 = no effect, 100 = complete kill) at 16 g/ha (corn (Zea mays); [13]): 10%
- Corn plant response rating (crop injury, 0 = no effect, 100 = complete kill) at 31 g/ha (corn (Zea mays); [14]): 15%
- Corn plant response rating (crop injury, 0 = no effect, 100 = complete kill) at 62 g/ha (corn (Zea mays); [15]): 15%
- Corn plant response rating (crop injury, 0 = no effect, 100 = complete kill) at 125 g/ha (corn (Zea mays); [16]): 20%
- Corn plant response rating (crop injury, 0 = no effect, 100 = complete kill) at 8 g/ha (corn (Zea mays); [17]): 0%
- Corn plant response rating (crop injury, 0 = no effect, 100 = complete kill) at 16 g/ha (corn (Zea mays); [18]): 0%
- Corn plant response rating (crop injury, 0 = no effect, 100 = complete kill) at 31 g/ha (corn (Zea mays); [19]): 30%
- Corn plant response rating (crop injury, 0 = no effect, 100 = complete kill) at 62 g/ha (corn (Zea mays); [21]): 0%
- Corn plant response rating (crop injury, 0 = no effect, 100 = complete kill) at 125 g/ha (corn (Zea mays); [20]): 20%
- pest or weed control at 8 g/ha ([5]; 8 g ai/ha Preemergence): 40%
- pest or weed control at 16 g/ha ([5]; 16 g ai/ha Preemergence): 70%
- pest or weed control at 31 g/ha ([5]; 31 g ai/ha Preemergence): 70%
- pest or weed control at 125 g/ha ([5]; 125 g ai/ha Preemergence): 100%
- pest or weed control at 62 g/ha ([5]; Preemergence): 100%
- pest or weed control at 8 g/ha [6, 12]: 50%
- pest or weed control at 16 g/ha [6, 13]: 50%
- pest or weed control at 31 g/ha [6, 14]: 60%
- pest or weed control at 62 g/ha [6, 15]: 65%
- pest or weed control at 125 g/ha [6, 16]: 70%
- pest or weed control at 8 g/ha [6, 17]: 0%
- pest or weed control at 16 g/ha [6, 18]: 0%
- pest or weed control at 31 g/ha [6, 19]: 20%
- pest or weed control at 62 g/ha [6, 21]: 20%
- pest or weed control at 125 g/ha [6, 20]: 50%
- pest or weed control at 8 g/ha [7, 12]: 60%
- pest or weed control at 16 g/ha [7, 13]: 80%
- pest or weed control at 31 g/ha [7, 14]: 95%
- pest or weed control at 62 g/ha [7, 15]: 98%
- pest or weed control at 125 g/ha [7, 16]: 98%
- pest or weed control at 8 g/ha [7, 17]: 50%
- pest or weed control at 16 g/ha [7, 18]: 80%
- pest or weed control at 31 g/ha [7, 19]: 100%
- pest or weed control at 62 g/ha [7, 21]: 100%
- pest or weed control at 125 g/ha [7, 20]: 100%
- pest or weed control at 8 g/ha [8, 12]: 30%
- pest or weed control at 16 g/ha [8, 13]: 40%
- pest or weed control at 31 g/ha [8, 14]: 40%
- pest or weed control at 62 g/ha [8, 15]: 50%
- pest or weed control at 125 g/ha [8, 16]: 50%
- pest or weed control at 8 g/ha [8, 17]: 0%
- pest or weed control at 16 g/ha [8, 18]: 35%
- pest or weed control at 31 g/ha [8, 19]: 100%
- pest or weed control at 125 g/ha [8, 20]: 100%
- pest or weed control at 62 g/ha ([8]; pre-emergence, Preemergence): 100%
- pest or weed control at 8 g/ha [9, 12]: 10%
- pest or weed control at 16 g/ha [9, 13]: 20%
- pest or weed control at 31 g/ha [9, 14]: 30%
- pest or weed control at 62 g/ha [9, 15]: 35%
- pest or weed control at 125 g/ha [9, 16]: 40%
- pest or weed control at 8 g/ha [9, 17]: 0%
- pest or weed control at 16 g/ha [9, 18]: 95%
- pest or weed control at 31 g/ha [9, 19]: 98%
- pest or weed control at 62 g/ha [9, 21]: 100%
- pest or weed control at 125 g/ha [9, 20]: 100%
- pest or weed control at 1000 g/ha ([10]; post-emergence, Postemergence): 100%
- pest or weed control at 1000 g/ha ([10]; pre-emergence, Preemergence): 90%
- pest or weed control at 1000 g/ha ([11]; post-emergence, Postemergence): 100%
- pest or weed control at 1000 g/ha ([11]; pre-emergence, Preemergence): 100%
